Reference: patent US8962810B2, “Macrocyclic heterocyclic compound for inhibiting hepatitis C virus and preparation and use thereof” (AB Pharma Ltd., priority 2011, dated 2015)

What follows are compounds tested against T1, HCV Protease (HCV NS3-4A) (Hepatitis C virus genotype 1a, UniProt P27958) (assay: HCV Protease (HCV NS3-4A) anti-activity assay, fluorescence quenching (FRET)).
T1 construct: HCV Protease: HCV NS3-4A, self-prepared; made in house
Format: biochemical
Description: Method of HCV Protease (HCV NS3-4A) Anti-Activity Assay:
HCV Protease (HCV NS3/4A) anti-activity was measured by an inter fluorescence quenching system. EDANS group and DABCYL group were bonded on each side of a peptide. When protein cleavage started, fluorescence quenching of EDANS by DABCYL was detected. We used a high throughput screening model for HCV NS3/4A protease inhibitors, the tested drugs were prepared with 5 different concentrations, positive control and negative control were set in the same time. In the optimized reaction system, fluorescence were determined at ex=355, em=520 by a Polarstar fluorescence detector. Calculate the inhibition rate of each concentration; calculate the half maximal inhibitory concentration (IC50) with the method of Reed-Muench.
Materials: HCV Protease: HCV NS3-4A, self-prepared, stored at −70. HCV Protease substrate (FRET-S): Ac-Asp-Glu-Asp(EDANS)-Glu-Glu-Abu-ψ-[COO]-Ala-Ser-Lys-(DABCYL)-NH2, supplied by AnaSpec USA, prepared of 100 μM by DMSO, distributed and stored at −20 without light. Buffer solution: 30 mM NaCl, 5 mM CaCl2, 10 mM DTT, 50 mM Tris (pH7.8).
Instrument: fluorescence detector Polarstar from Germany Company BMG
Preparation and operation: preparation of 10 mg/mL by DMSO, dilute of 10000, 2000, 400, 80, 16 ng/mL as tested concentrations by buffer solutions, adding 20 μL into each well, the total reaction system is 200 μL, to make the final concentrations of 1000, 200, 40, 8, 1.6 ng/mL. Add 140 μL buffer solution, 20 μL drug solution, 20 μL HCV protease, and 20 μL FRET-S substrate with final concentration of 0.25 μM into 96-well fluorescence microtiterplate, the reaction started at 37, set control wells of protease-substrate reaction and of isolate substrate and isolate protease, fluorescence signals were detected by fluorescence detector (ex=355,em=520). Calculate the inhibition rates of samples for each concentration by comparison of fluorescence value of sample in each well and the fluorescence control value of enzyme, calculate the half maximal inhibitory concentration (IC50) of samples to HCV protease with the method of Reed-Muench.
THF and Et2O were distilled from sodium metal and benzophenone. DCM, pentane and hexane were distilled form calcium hydride. Special raw materials and intermediates in the invention were supplied by Zannan SciTech Co. for ordered processing, Ltd. in Shanghai, others reagents were purchased from Shanghai reagent company, Aldrich, Acros etc. If intermediates or products of synthesis were not enough for the next step of reaction, the synthesis shall be repeated until it is sufficient. The HCV protease (HCV NS3-4A) inhibitory activity assays in the present invention were performed by relevant cooperation service units of China Institutes for Biological Science in Beijing.

T1 sequence (P27958 1658-1711): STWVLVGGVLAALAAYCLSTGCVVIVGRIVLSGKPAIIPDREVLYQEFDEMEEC
T1 sequence (P27958 1027-1657): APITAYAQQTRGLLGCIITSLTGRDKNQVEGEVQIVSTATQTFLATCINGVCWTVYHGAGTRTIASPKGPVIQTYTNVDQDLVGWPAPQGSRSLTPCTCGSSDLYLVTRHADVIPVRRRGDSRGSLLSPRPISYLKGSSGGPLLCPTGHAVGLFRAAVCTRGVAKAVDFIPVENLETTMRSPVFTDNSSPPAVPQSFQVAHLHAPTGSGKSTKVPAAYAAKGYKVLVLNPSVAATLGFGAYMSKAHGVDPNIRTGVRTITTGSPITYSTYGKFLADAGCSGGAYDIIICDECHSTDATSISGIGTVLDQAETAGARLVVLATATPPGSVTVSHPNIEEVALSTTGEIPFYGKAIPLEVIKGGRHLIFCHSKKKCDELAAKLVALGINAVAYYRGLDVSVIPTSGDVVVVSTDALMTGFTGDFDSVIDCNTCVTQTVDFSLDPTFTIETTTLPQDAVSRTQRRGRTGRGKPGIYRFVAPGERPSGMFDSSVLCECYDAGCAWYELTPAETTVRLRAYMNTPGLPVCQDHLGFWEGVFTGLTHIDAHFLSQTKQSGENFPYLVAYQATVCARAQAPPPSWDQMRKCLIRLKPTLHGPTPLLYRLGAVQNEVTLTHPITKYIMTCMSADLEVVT

Structure (SMILES) | IC50
C=CC1CC1(NC(=O)C1CC2CN1C(=O)C(C(C)(C)C)NC(=O)OCCCC=Cc1c3c(cc4c1OCO4)CN(C3)C(=O)O2)C(=O)NS(=O)(=O)C1CC1 (stereo not shown) [Compound 15bt] | 0.1 to 5 nM
C=C[C@H]1C[C@@]1(NC(=O)C1C[C@@H]2CN1C(=O)[C@H](C(C)(C)C)NC(=O)OCCCC/C=C\c1c3c(cc4c1OCO4)CN(C3)C(=O)O2)C(=O)NS(=O)(=O)C1CC1 (stereo partly shown) [Compound 15bu] | 0.1 to 5 nM
C=C[C@H]1C[C@@]1(NC(=O)C1C[C@@H]2CN1C(=O)[C@H](C(C)(C)C)NC(=O)OCC(C)(C)CC/C=C\c1c3c(cc4c1OCO4)CN(C3)C(=O)O2)C(=O)NS(=O)(=O)C1CC1 (stereo partly shown) [Compound 15bv] | 0.1 to 5 nM
CC[C@H]1C[C@@]1(NC(=O)C1C[C@@H]2CN1C(=O)[C@H](C(C)(C)C)NC(=O)OCCCC/C=C\c1c3c(cc4c1OCO4)CN(C3)C(=O)O2)C(=O)NS(=O)(=O)C1CC1 (stereo partly shown) [Compound 15bw] | 0.1 to 5 nM
CC[C@H]1C[C@@]1(NC(=O)C1C[C@@H]2CN1C(=O)[C@H](C(C)(C)C)NC(=O)OCCCCCCc1c3c(cc4c1OCO4)CN(C3)C(=O)O2)C(=O)NS(=O)(=O)C1CC1 (stereo partly shown) [Compound 15bx] | 0.1 to 5 nM
CC[C@H]1C[C@@]1(NC(=O)C1C[C@@H]2CN1C(=O)[C@H](C(C)(C)C)NC(=O)OCC(C)(C)CCCCc1c3c(cc4c1OCO4)CN(C3)C(=O)O2)C(=O)NS(=O)(=O)C1CC1 (stereo partly shown) [Compound 15by] | 0.1 to 5 nM
C=C[C@H]1C[C@@]1(NC(=O)C1C[C@@H]2CN1C(=O)[C@H](C(C)(C)C)NC(=O)OCC1(CC/C=C/COc3cccc4c3CN(C4)C(=O)O2)CC1)C(=O)NS(=O)(=O)C1CC1 (stereo partly shown) [Compound 15c] | 0.1 to 5 nM
CC[C@H]1C[C@@]1(NC(=O)C1C[C@@H]2CN1C(=O)[C@H](C(C)(C)C)NC(=O)OCC1(C/C=C/CSc3cccc4c3CN(C4)C(=O)O2)CC1)C(=O)NS(=O)(=O)C1CC1 (stereo partly shown) [Compound 15ca] | 0.1 to 5 nM
CC[C@H]1C[C@@]1(NC(=O)C1C[C@@H]2CN1C(=O)[C@H](C(C)(C)C)NC(=O)OCC(C)(C)C/C=C/CSc1cccc3c1CN(C3)C(=O)O2)C(=O)NS(=O)(=O)C1CC1 (stereo partly shown) [Compound 15cb] | 0.1 to 5 nM
CC[C@H]1C[C@@]1(NC(=O)C1C[C@@H]2CN1C(=O)[C@H](C(C)(C)C)NC(=O)OCCC/C=C/CSc1cccc3c1CN(C3)C(=O)O2)C(=O)NS(=O)(=O)C1CC1 (stereo partly shown) [Compound 15cc] | 0.1 to 5 nM
C=C[C@H]1C[C@@]1(NC(=O)C1C[C@@H]2CN1C(=O)[C@H](C(C)(C)C)NC(=O)OCC1(CCCCCOc3cccc4c3CN(C4)C(=O)O2)CC1)C(=O)NS(=O)(=O)C1CC1 (stereo partly shown) [Compound 15d] | 0.1 to 5 nM
CC[C@H]1C[C@@]1(NC(=O)C1C[C@@H]2CN1C(=O)[C@H](C(C)(C)C)NC(=O)OCC1(C/C=C/COc3cccc4c3CN(C4)C(=O)O2)CC1)C(=O)NS(=O)(=O)C1CC1 (stereo partly shown) [Compound 15f] | 0.1 to 5 nM
C=C[C@H]1C[C@@]1(NC(=O)C1C[C@@H]2CN1C(=O)[C@H](C(C)(C)C)NC(=O)OCC1(C/C=C/COc3cccc4c3CN(C4)C(=O)O2)CC1)C(=O)NS(=O)(=O)C1CC1 (stereo partly shown) [Compound 15g] | 0.1 to 5 nM
CC[C@H]1C[C@@]1(NC(=O)C1C[C@@H]2CN1C(=O)[C@H](C(C)(C)C)NC(=O)OCC(C)(C)C/C=C/COc1c(OC)ccc3c1CN(C3)C(=O)O2)C(=O)NS(=O)(=O)C1CC1 (stereo partly shown) [Compound 15h] | 5.1 to 50 nM
C=C[C@H]1C[C@@]1(NC(=O)C1C[C@@H]2CN1C(=O)[C@H](C(C)(C)C)NC(=O)OCCCC/C=C/COc1c(OC)ccc3c1CN(C3)C(=O)O2)C(=O)NS(=O)(=O)C1CC1 (stereo partly shown) [Compound 15j] | 0.1 to 5 nM
C=C[C@H]1C[C@@]1(NC(=O)C1C[C@@H]2CN1C(=O)[C@H](C(C)(C)C)NC(=O)OCCC/C=C/COc1c(OC)ccc3c1CN(C3)C(=O)O2)C(=O)NS(=O)(=O)C1CC1 (stereo partly shown) [Compound 15k] | 0.1 to 5 nM
CCC1CC1(NC(=O)C1CC2CN1C(=O)C(C(C)(C)C)NC(=O)OCCC=CCOc1c(OC)ccc3c1CN(C3)C(=O)O2)C(=O)NS(=O)(=O)C1CC1 (stereo not shown) [Compound 15m] | 5.1 to 50 nM
C=C[C@H]1C[C@@]1(NC(=O)C1C[C@@H]2CN1C(=O)[C@H](C(C)(C)C)NC(=O)OCC/C=C/COc1c(OC)ccc3c1CN(C3)C(=O)O2)C(=O)NS(=O)(=O)C1CC1 (stereo partly shown) [Compound 15n] | 0.1 to 5 nM
C=CC1CC1(NC(=O)C1CC2CN1C(=O)C(C(C)(C)C)NC(=O)OCC(C)(C)CC=CCOc1c(OC)ccc3c1CN(C3)C(=O)O2)C(=O)NS(=O)(=O)C1CC1 (stereo not shown) [Compound 15p] | 0.1 to 5 nM
CC[C@H]1C[C@@]1(NC(=O)C1C[C@@H]2CN1C(=O)[C@H](C(C)(C)C)NC(=O)OCCCC/C=C/COc1c(OC)ccc3c1CN(C3)C(=O)O2)C(=O)NS(=O)(=O)C1CC1 (stereo partly shown) [Compound 15q] | 5.1 to 50 nM
CC[C@H]1C[C@@]1(NC(=O)C1C[C@@H]2CN1C(=O)[C@H](C(C)(C)C)NC(=O)OCCCCCCCCCOc1cccc3c1CN(C3)C(=O)O2)C(=O)NS(=O)(=O)C1CC1 (stereo partly shown) [Compound 15z] | 5.1 to 50 nM

Results, then the compound that gave them:

IC50 | Structure (SMILES)
51 to 300 nM | CC[C@H]1C[C@@]1(NC(=O)C1C[C@@H]2CN1C(=O)[C@H](C(C)(C)C)NC(=O)OCC(C)(C)CCCCOC(=O)c1ccc3c(c1)CN(C3)C(=O)O2)C(=O)NS(=O)(=O)C1CC1 (stereo partly shown) [Compound 15br]
51 to 300 nM | CCC1CC1(NC(=O)C1CC2CN1C(=O)C(C(C)(C)C)NC(=O)OCC(C)(C)CCCCCOC(=O)c1ccc3c(c1)CN(C3)C(=O)O2)C(=O)NS(=O)(=O)C1CC1 (stereo not shown) [Compound 15bs]
0.1 to 5 nM | CC[C@H]1C[C@@]1(NC(=O)C1C[C@@H]2CN1C(=O)[C@H](C(C)(C)C)NC(=O)OCC(C)(C)CCCCN(C)c1cccc3c1CN(C3)C(=O)O2)C(=O)NS(=O)(=O)C1CC1 (stereo partly shown) [Compound 15cd]
0.1 to 5 nM | CC[C@H]1C[C@@]1(NC(=O)C1C[C@@H]2CN1C(=O)[C@H](C(C)(C)C)NC(=O)OCC1(CCCCOc3cccc4c3CN(C4)C(=O)O2)CC1)C(=O)NS(=O)(=O)C1CC1 (stereo partly shown) [Compound 15e]
0.1 to 5 nM | CC[C@H]1C[C@@]1(NC(=O)C1C[C@@H]2CN1C(=O)[C@H](C(C)(C)C)NC(=O)OCC(C)(C)CC/C=C/COc1cccc3c1CN(C3)C(=O)O2)C(=O)NS(=O)(=O)C1CC1 (stereo partly shown) [Compound 15r]
0.1 to 5 nM | CCC1CC1(NC(=O)C1CC2CN1C(=O)C(C(C)(C)C)NC(=O)OCC(C)(C)CCCCOc1cccc3c1CN(C3)C(=O)O2)C(=O)NS(=O)(=O)C1CC1 (stereo not shown) [Compound 15u]
0.1 to 5 nM | CCC1CC1(NC(=O)C1CC2CN1C(=O)C(C(C)(C)C)NC(=O)OCC(C)(C)CCCCCOc1cc(OC)cc3c1CN(C3)C(=O)O2)C(=O)NS(=O)(=O)C1CC1 (stereo not shown) [Compound 15v]
0.1 to 5 nM | CC[C@H]1C[C@@]1(NC(=O)C1C[C@@H]2CN1C(=O)[C@H](C(C)(C)C)NC(=O)OCCCCCCOc1cccc3c1CN(C3)C(=O)O2)C(=O)NS(=O)(=O)C1CC1 (stereo partly shown) [Compound 15w]
0.1 to 5 nM | CC[C@H]1C[C@@]1(NC(=O)C1C[C@@H]2CN1C(=O)[C@H](C(C)(C)C)NC(=O)OCCCCCCCOc1cccc3c1CN(C3)C(=O)O2)C(=O)NS(=O)(=O)C1CC1 (stereo partly shown) [Compound 15x]
5.1 to 50 nM | CCC1CC1(NC(=O)C1CC2CN1C(=O)C(C(C)(C)C)NC(=O)OCCCCCCCCOc1cccc3c1CN(C3)C(=O)O2)C(=O)NS(=O)(=O)C1CC1 (stereo not shown) [Compound 15y]
